From patent US20110142866A1, “PEPTIDE ANALOGUES AND CONJUGATES THEREOF” (Eldrug S.A., priority 2007, published 2011)
“Also recorded” adds a separate entry of the source.

Assays:
[1] = test system: IL-4 secretion by T cells; assay: IL-4 ELISpot of spleen cells from immunized mice; type: in vivo, SJL/J mice; set-up: key to IL-4: −: negative; +/−: very weak; +: weak; ++: moderate; +++: strong; settings: for IL-4 responses: peptide conjugated to reduced mannan, two injections
Experimental: Female 6-8 week old SJL/J mice used in all experiments, were purchased from Walter and Eliza Hall Institute (VIC Australia) and housed at the Biological Research Laboratory at Burnet Institute at Austin, Heidelberg, Australia. SJL/J mice were immunized twice on days 0, 14 intradermally (base of tail) with 50 μg MBP83-99 peptide analogue-KLH-reduced mannan.
ELISpot analyses specific T cell responses to antigens by detecting the secretion of specific cytokines. Spleen cells from immunized SJL/J mice were isolated 14 days after immunization and assessed by ELISpot for IFN-γ, IL-4 or IL-10 secretion by T cells. IFN-γ ELISpot assay was performed on MultiScreen-IP Filter Plate (MAIP S4510) with hydrophobic PVDF filters (Millipore, UK) while IL-4 and IL-10 ELISpot was performed on MultiScreen-HA Filter Plate (MAHA S4510) with mixed cellulose esters filters (Millipore, UK). MAIP S4510 plates were pre-wet with 50 μl of 70% ethanol, washed 5 times with 200 μl sterile PBS and coated with 70 μl of 5 μg/ml anti-IFN-γ capture antibody, AN18 (Mabtech, Australia) in PBS and left to incubate at 4° C. O/N. While 70 μl of 5 μg/ml anti-IL-4 and anti-IL-10 capture antibody (Mabtech, Australia) was added directly to MAHA S4510 plates and incubated at 4° C. O/N without 70% ethanol treatment. Following 5 washes with PBS, plates were blocked by adding 200 μl of culture media (supplemented with 2.5% FCS) and incubated for 2 hours at 37° C. The blocking media was discarded and 10 μg/ml recall peptides (MBP83-99 peptide analogues not conjugated to KLH-reduced mannan) were added into each defined well. Con A (1.0 μg/ml; IL-4 and IFN-γ) or LPS (1.0 μg/ml; IL-10) were used as an internal positive controls and no peptide was used as negative control. Triplicate wells were set up for each condition. 5×10^5 spleen cells in 100 μl culture media were seeded into each well and incubated for 18 hours for IFN-γ, 24 hours for IL-4 and 48 hours for IL-10 at 37° C. Plates were washed 5 times PBS/0.05% Tween 20 and 5 times PBS and incubated for 2 hours at RT with anti-murine IFN-γ, IL-4 or IL-10 monoclonal antibody-biotin. Plates were washed and streptavidin-ALP was added at 1.0 μg/ml and incubated for 2.0 hours at RT. Spots of activity were detected using a colorimetric AP kit (Biorad, Hercules, Calif. USA) and counted using an AID ELISpot plate reader (Autoimmun Diagnostika GmbH, Germany). Data are presented as mean spot forming units (sfu) per 0.5×10^6 cells +/−standard error of the mean (SEM).
MBP87-99, [R^91, A^96]MBP87-99 or [A^91, A^96]MBP87-99 peptides were dissolved in PBS and emulsified in an equal volume of complete Freund's adjuvant (CFA) which contained 1.0 mg/ml of heat killed Mycobacterium tuberculosis H37RA (Sigma, Victoria, Australia). SJL/J mice were given one subcutaneous injection containing 50 μg peptide into the base of tail.
SJL/J mice were immunized twice on days 0 and 14 intradermally (base of tail) with 50 μg MBP87-99-KLH-reduced mannan, [R^91, A^96]MBP87-99-KLH-reduced mannan or [A^91, A^96]MBP87-99-KLH-reduced mannan conjugates.
ELISpot detects specific T cell responses to antigens by measuring the secretion of specific cytokines from individual cells. Spleen cells from immunized SJL/J mice were isolated 28 days after CFA immunization or 14 days after the last immunization with reduced mannan-peptides and assessed by ELISpot for IFN-γ and IL-4 secretion by T cells. IFN-γ ELISpot assay was performed on MultiScreen-IP Filter Plate (MAIP S4510) with hydrophobic PVDF filters (Millipore, UK), while IL-4 ELISpot assays were performed on MultiScreen-HA Filter Plate (MAHA S4510) with mixed cellulose esters filters (Millipore, UK). MAIP S4510 plates were pre-weted with 50 μl of 70% ethanol, washed 5 times with 200 μl of sterile phosphate-buffered saline (PBS) and coated with 70 μl of 5 μg/ml anti-IFN-γ capture antibody, AN18 (Mabtech, Australia) in PBS and incubated O/N at 4° C. […]

[2] = test system: native bovine MBP protein; assay: ELISA cross reaction of sera with native MBP protein; type: in vivo; set-up: key to Cross reaction with native MBP / Ab Cross reaction with native MBP: −: negative; +/−: very weak; +: weak; ++: moderate; +++: strong; settings: for Cross reaction with native MBP: Table 2, peptide analogues conjugated to reduced mannan-KLH; for Ab Cross reaction with native MBP: Table 3, peptide analogues emulsified in complete Freund's adjuvant; for cross reaction of sera with native MBP protein (in words): peptide conjugated to reduced mannan, 1/200 and 1/1,600 sera dilution
Experimental: Blood was collected and sera isolated from mice prior to and 2 weeks after immunization. MBP83-99 peptides conjugated to BSA were coated onto polyvinyl chloride (PVC) microtiter plates at 10 μg/ml or with 2.5 μg/ml native MBP bovine protein in 0.2 M NaHCO3 buffer, pH 9.6, overnight at 4′C and non-specific binding was blocked with 2% BSA for 1.0 hour at room temperature. After washing (0.05% Tween 20/PBS), serial dilutions of sera were added and incubated for a further 2.0 hours at room temperature. The plates were washed and bound antibody was detected using HRP-conjugated sheep anti-mouse antibody (1:1000 in PBS) (Amersham, UK) and developed using 2,2″-azino-di(3-ethylbenzthiazoline) sulphonate (ABTS) (Sigma, UK). Absorption at 405 nm was recorded using an ELISA microplate reader.

[3] = 50 μg peptide conjugated to reduced mannan, two intradermal injections, spleen cells 14 days post-immunization
[4] = Table 2, peptide analogues conjugated to reduced mannan-KLH
[5] = Table 3, peptide analogues emulsified in complete Freund's adjuvant
[6] = 50 μg peptide emulsified in CFA, one injection, spleen cells 28 days

What does the source list for “E N P V V H F F Y N I V T P R T P (ENPVVHFFYNIVTPRTP) [[Y^91]MBP83-99]”?
IL-4 secreting T cells (in words) [1, 3]: high levels; IL-4 [1, 4]: +++; IL-4 [1, 5]: −; Cross reaction with native MBP [2]: −; Ab Cross reaction with native MBP [2]: −; cross reaction of sera with native MBP protein (in words) [2]: did not cross react

Which “IL-4 secreting T cells (in words)” value [1, 3] does the source give for “E N P V V H F F K N I V T P R T P (ENPVVHFFKNIVTPRTP) [MBP83-99, reference compound]” here?
The value was “did not stimulate; also recorded: weak or no; also recorded: low levels”.

And the “IL-4 secreting T cells (in words)” value [1, 6]?
The value was “did not induce IL-4”.

And the IL-4 [1, 4]?
The IL-4 was “−”.

And the IL-4 [1, 5]?
Its IL-4 is “−”.

What about the “Cross reaction with native MBP” value [2] of the same compound?
The value was “+++”.

And the “Ab Cross reaction with native MBP” value [2]?
The value was “−”.

And the “cross reaction of sera with native MBP protein (in words)” value (from here on “cross reaction of sera”) [2]?
The value was “highly cross reacted; also recorded: cross reactive”.

Which results are given for “E N P V V H F F E N I V T P R T P (ENPVVHFFENIVTPRTP) [[E^91]MBP83-99]”?
IL-4 secreting T cells (in words) [1, 3]: high levels; IL-4 [1, 4]: +++; IL-4 [1, 5]: −; Cross reaction with native MBP [2]: +; Ab Cross reaction with native MBP [2]: −; cross reaction of sera with native MBP protein (in words) [2]: reacted moderately; also recorded: cross reacted weakly

Which results are given for `CC[C@H](C)[C@@H]1NC(=O)[C@H](CC(N)=O)NC(=O)[C@H](CCCCN)NC(=O)[C@H](Cc2ccccc2)NC(=O)[C@H](Cc2ccccc2)NC(=O)[C@H](Cc2c[nH]cn2)NC(=O)[C@H](C(C)C)NC(=O)[C@H](C(C)C)NC(=O)[C@@H]2CCCN2C(=O)[C@H](CC(N)=O)NC(=O)[C@H](CCC(=O)O)NC(=O)[C@@H]2CCCN2C(=O)[C@H]([C@@H](C)O)NC(=O)[C@H](CCCNC(=N)N)NC(=O)[C@@H]2CCCN2C(=O)[C@H]([C@@H](C)O)NC(=O)[C@H](C(C)C)NC1=O` [cyclo(83-99)MBP83-99, cyclo(83-99)E N P V V H F F K N I V T P R T P]?
IL-4 secreting T cells (in words) [1, 3]: did not stimulate; also recorded: weak or no; IL-4 secreting T cells (in words) [1, 6]: induced IL-4; IL-4 [1, 5]: −; Ab Cross reaction with native MBP [2]: −; cross reaction of sera with native MBP protein (in words) [2]: highly cross reacted

How did the “IL-4 secreting T cells (in words)” value [1, 3] turn out when “E N P V V H F F F N I V T P R T P (ENPVVHFFFNIVTPRTP) [[F^91]MBP83-99]” was run?
Its value is “high levels; also recorded: induced”.

What about the IL-4 [1, 4] of the same compound?
Its IL-4 is “+++”.

What about the IL-4 [1, 5] of the same compound?
Its IL-4 is “−”.

And the “Cross reaction with native MBP” value [2]?
The value was “−”.

And the “Ab Cross reaction with native MBP” value [2]?
Its value is “−”.

And the “cross reaction of sera” value [2]?
The value was “did not react”.

“E N P V V H F F A N I V T P R T P (ENPVVHFFANIVTPRTP) [[A^91]MBP83-99]” was tested. Which “IL-4 secreting T cells (in words)” value [1, 3] did it give?
The value was “high levels”.

And the “IL-4 secreting T cells (in words)” value [1, 6]?
The value was “not able to generate IL-4”.

And the IL-4 [1, 4]?
The IL-4 was “+++”.

And the IL-4 [1, 5]?
Its IL-4 is “−”.

And the IL-4 responses [1]?
The IL-4 responses was “up to 600 SFU/0.5 million cells”.

And the “Cross reaction with native MBP” value [2]?
Its value is “+”.

What about the “Ab Cross reaction with native MBP” value [2] of the same compound?
The value was “++”.

And the “cross reaction of sera” value [2]?
Its value is “reacted moderately; also recorded: cross reacted weakly”.

“E N P V V H F F R N I V T A R T P (ENPVVHFFRNIVTARTP) [[R^91, A^96]MBP83-99]” was tested. Which “IL-4 secreting T cells (in words)” value [1, 3] did it give?
Its value is “high levels”.

And the IL-4 [1, 4]?
Its IL-4 is “+++”.

What about the IL-4 [1, 5] of the same compound?
Its IL-4 is “++”.

And the “Cross reaction with native MBP” value [2]?
Its value is “+++”.

What about the “Ab Cross reaction with native MBP” value [2] of the same compound?
Its value is “−”.

And the “cross reaction of sera” value [2]?
Its value is “cross reactive”.

And the “cross reaction of sera” value ([2]; listed as [A^91, R^96]MBP83-99)?
The value was “highly cross reacted”.

What does the source list for “cyclo(83-99)E N P V V H F F A N I V T P R T P (ENPVVHFFANIVTPRTP; cyclised or stapled) [cyclo(83-99)[A^91]MBP83-99]”?
IL-4 secreting T cells (in words) [1, 3]: negative; IL-4 secreting T cells (in words) [1, 6]: did generate IL-4; IL-4 [1, 4]: −; IL-4 [1, 5]: −; IL-4 responses [1]: up to 70 SFU/0.5 million cells; Cross reaction with native MBP [2]: +; Ab Cross reaction with native MBP [2]: −; cross reaction of sera with native MBP protein (in words) [2]: reacted moderately
